“And” between values parts separate entries of the source, which are not always exact repeats. Equal values may be shown once. Read-outs that look alike come from different tables or passages of the source. Values belong to the compound of their own block, whether it stands above or below them.
Experiments:
[1] = molecular target: Folate Receptor (Homo sapiens, UniProt P15328); details: Table 1 footnote (a): Westerhoff et al. 1995; cited from earlier work
[2] = molecular target: T1, human FRs (KB cells) (Homo sapiens, UniProt P15328); test: Cell-Based Relative Affinity Assay (competition with 3H-FA on adherent KB cells); format: binding; details: for fold weaker affinity / fold lower RA: versus FA (or the Glu-bearing parent); for change of RA with incubation temperature: on ice versus 37° C.
T1 construct: endogenous in cells; host or cells: KB cells
Protocol: Cell culture. Cells were grown continuously as a monolayer using folate-free RPMI medium (FFRPMI) containing 10% heat-inactivated fetal calf serum (HIFCS) at 37° C. in a 5% CO2/95% air-humidified atmosphere with no antibiotics. The HIFCS contained its normal complement of endogenous folates which enabled the cells to sustain growth in this more physiologically-relevant medium (Leamon et al. Proc Natl Acad Sci, USA 1991; 88:5572-6). All cell experiments were performed using FFRPMI containing 10% HIFCS (FFRPMI/HIFCS) as the growth medium unless otherwise specified.
Cell-Based Relative Affinity Assay. The relative affinity of each test article was determined based on a method initially described by Westerhoff et al. Mol Pharm 1995; 48:459-71) with modifications. Briefly, FR-positive KB cells were seeded in 24-well Falcon plates and allowed to form adherent monolayers (>75% confluent) overnight in FFRPMI/HIFCS. […] Cells were incubated for 1 h on ice or in an incubator at 37° C. (as specified in the figure legends) and then rinsed 3 times with 0.5 mL of PBS. Five hundred microliters of 1% sodium dodecyisulfate in PBS were added to each well; after 5 min, cell lysates were collected, transferred to individual vials containing 5 mL of scintillation cocktail, and then counted for radioactivity. […] Relative affinities were defined as described above.
(§1) Relative Affinity Assay Format. The in vitro RA assay described within measures a ligand's ability to compete with FA for binding to FRs. To date, cultured cells have most commonly been used as the FR source. However, herein described is the evaluation of the use of a cell-free, immobilized FR plate system for this assay. This latter method utilized a microtiter plate to which commercially-available bovine milk soluble FBP had been chemically anchored. Similar to the cell-based method, ^3H-FA can compete directly with increasing concentrations of test article for binding to the attached FRs; however, unlike the cell-based method, bound radiolabel can be conveniently “stripped” from the plate by rinsing with a mildly acidic saline solution. […] Likewise, values lower than unity reflect weaker affinity, and values higher than unity reflect stronger affinity.

[3] = system: KB cells; test: Activity against KB cells (72 h continuous assay); format: cell-based; details: Homo sapiens
[4] = system: human KB tumor cells xenografts; test: Activity against subcutaneous KB tumors; format: in vivo, mice; details: 2 μmol/kg TIW/2 weeks
Protocol: Effect On Transplanted KB Tumors. Mice are injected, subcutaneously with human KB tumor cells xenografts.

[5] = molecular target: bovine milk soluble folate binding protein (sFBP) (Bos taurus, UniProt P02702); details: plate-anchored bovine milk sFBP, cold incubation, absence of serum
Text: as §1

[6] = Remaining in solution during the RA assay period; format: physicochemical; details: even at 30 μM, throughout the assay period
Text: It is further appreciated that among the folate analogs, it was interesting to observe the importance of having a charged moiety in close proximity to the Pte group. For example, the RA value increased 90 to>300-fold when a Glu residue was attached to Pte, and N^10-propargyl 5,8-dideazapteroic acid, respectively. […] But, two exceptions were found. […] Therefore, without being hound by theory, it is believed that the lower RA value observed for EC216 may result from steric interference caused by the closer proximity of the drug (DAVLBH) to the Pte unit.

[7] = Table 1, adherent KB cells, 10% serum, 37° C., FA = 1
[8] = KB cells, 10% serum (10% serum/FDRPMI)
[9] = Table 2, adherent KB cells, 10% serum, 37° C., FA = 1

T1 sequence (P15328 25-234): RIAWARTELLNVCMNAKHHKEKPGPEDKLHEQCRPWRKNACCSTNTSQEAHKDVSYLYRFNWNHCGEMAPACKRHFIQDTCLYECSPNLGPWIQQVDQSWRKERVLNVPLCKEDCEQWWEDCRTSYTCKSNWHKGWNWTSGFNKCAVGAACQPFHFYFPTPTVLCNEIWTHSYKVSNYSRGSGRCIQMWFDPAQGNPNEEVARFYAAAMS
Chain of Folate Receptor (P15328 25-234): as above
Chain of bovine milk soluble folate binding protein (sFBP) (P02702 20-234): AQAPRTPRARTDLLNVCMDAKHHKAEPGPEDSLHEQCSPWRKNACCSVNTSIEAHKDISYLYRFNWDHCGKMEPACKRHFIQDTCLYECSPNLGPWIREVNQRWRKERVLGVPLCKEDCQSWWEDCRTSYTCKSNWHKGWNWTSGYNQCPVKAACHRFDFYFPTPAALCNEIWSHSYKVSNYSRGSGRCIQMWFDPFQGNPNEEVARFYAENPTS

RA (relative affinity) [2, 8]: 0.148
RA / competitive binding in words ([2]; KB cells, 10% serum, 37° C.): equal to that of FA
Fold Weaker Affinity from FA ([2]; Table 1, 37° C., 10% serum): 1.0
Relative Binding Affinity (37° C.) [2, 7]: 1.000
IC50 ([3]; FIG. 9 Panel A): 5 nM
IC50 ([3]; FIG. 9 Panel B): 19 nM
SMILES: C#CCN(Cc1ccc2nc(N)[nH]c(=O)c2c1)c1ccc(C(=O)N[C@@H](CCC(=O)O)C(=O)O)cc1 [CB3717, N10-propargyl-5,8-dideazafolic acid]
complete responses [4]: 0/5

RA (relative affinity) [2, 8]: 0.002
SMILES: C#CCN(Cc1ccc2nc(N)[nH]c(=O)c2c1)c1ccc(C(=O)O)cc1 [EC283]

Second part, the compound before the results:

SMILES: Nc1nc2c(c(=O)[nH]1)N(C=O)C(CNc1ccc(C(=O)N[C@@H](CCC(=O)O)C(=O)O)cc1)CN2 (stereo partly drawn) [5-formyl-tetrahydrofolate, 5-formyltetrahydrofolate]
Relative Binding Affinity (0° C.), value in parentheses [1]: 0.1
fold weaker affinity / fold lower RA ([2]; KB cells, 10% serum, 37° C.): 125
Fold Weaker Affinity from FA ([2]; Table 1, 37° C., 10% serum): 125
Relative Binding Affinity (0° C.) ([2]; Table 1, KB cells, FA = 1): 0.15
Relative Binding Affinity (37° C.) [2, 7]: 0.008

SMILES: CN1c2c(nc(N)[nH]c2=O)NCC1CNc1ccc(C(=O)N[C@@H](CCC(=O)O)C(=O)O)cc1 (stereo partly drawn) [5-methyl-tetrahydrofolate, 5-methyltetrahydrofolate]
Relative Binding Affinity (0° C.), value in parentheses [1]: (0.35)^(a)
fold weaker affinity / fold lower RA ([2]; KB cells, 10% serum, 37° C.): 14
Fold Weaker Affinity from FA ([2]; Table 1, 37° C., 10% serum): 14
Relative Binding Affinity (37° C.) [2, 7]: 0.070

SMILES: C#CCN(Cc1ccc2nc(N)[nH]c(=O)c2c1)c1ccc(C(=O)O)cc1 [Des-glutamyl CB3717, N^10-propargyl 5,8-dideazapteroic acid]
fold weaker affinity / fold lower RA ([2]; KB cells, 10% serum, 37° C.): > 300
Fold Weaker Affinity from FA ([2]; Table 1, 37° C., 10% serum): 500
Relative Binding Affinity (37° C.) [2, 7]: 0.002

SMILES: Nc1nc2ncc(CNc3ccc(C(=O)N[C@@H](CCC(=O)NCCNC(=S)Nc4ccc(-c5c6ccc(=O)cc-6oc6cc(O)ccc56)c(C(=O)O)c4)C(=O)O)cc3)nc2c(=O)[nH]1 [EC17, Pte-γGlu-eda-FITC]
Fold Weaker Affinity form FA ([2]; Table 2, 37° C., 10% serum): 1.2
Relative Binding Affinity (0° C.) ([2]; Table 2, KB cells, FA = 1): 0.29
Relative Binding Affinity (37° C.) [2, 9]: 0.45
change of RA with incubation temperature ([2]; no serum): increased with temperature

SMILES: Nc1nc2ncc(CNc3ccc(C(=O)N[C@@H](CCC(=O)NC[C@H](N)C(=O)N[C@@H](CC(=O)O)C(=O)N[C@@H](CS)C(=O)O)C(=O)O)cc3)nc2c(=O)[nH]1 [EC20, Pte-γGlūβDpr-Asp-Cys]
Fold Weaker Affinity form FA ([2]; Table 2, 37° C., 10% serum): 1.1
Relative Binding Affinity (37° C.) [2, 9]: 0.92

SMILES: CO[C@@]12[C@H](COC(N)=O)C3=C(C(=O)C(C)=C(NCCSSC[C@H](NC(=O)CC[C@@H](NC(=O)c4ccc(NCc5cnc6nc(N)[nH]c(=O)c6n5)cc4)C(=O)O)C(=O)O)C3=O)N1C[C@@H]1N[C@@H]12 [EC72, Pte-γGlu-Cys-L-MMC]
Fold Weaker Affinity form FA ([2]; Table 2, 37° C., 10% serum): 1.5
Relative Binding Affinity (0° C.) ([2]; Table 2, KB cells, FA = 1): 0.53
Relative Binding Affinity (37° C.) [2, 9]: 0.59
change of RA with incubation temperature ([2]; no serum): increased with temperature

SMILES: CC[C@]1(O)CC2CN(CCc3c([nH]c4ccccc34)[C@@](C(=O)OC)(c3cc4c(cc3OC)N(C)[C@H]3[C@@](O)(C(=O)N/N=C(\C)c5ccc(N6C(=O)CC(SC[C@H](NC(=O)[C@H](CC(=O)O)NC(=O)[C@H](CC(=O)O)NC(=O)[C@H](CCCNC(=N)N)NC(=O)[C@H](CC(=O)O)NC(=O)CC[C@H](NC(=O)c7ccc(NCc8cnc9nc(N)[nH]c(=O)c9n8)cc7)C(=O)O)C(=O)O)C6=O)cc5)[C@H](O)[C@]5(CC)C=CCN6CC[C@]43[C@@H]65)C2)C1 (stereo partly drawn) [EC140, EC119-Hyd-DAVLBH]
RA (relative affinity) [2, 8]: 0.50
RA (relative affinity) ([2]; KB cells, 37° C., no serum): 0.12
fold change of RA with serum versus absence of serum ([2]; KB cells, serum versus no serum): 4 and 4.1
Fold Weaker Affinity form FA ([2]; Table 2, 37° C., 10% serum): 2.0
Relative Binding Affinity (37° C.) [2, 9]: 0.50

SMILES: CC[C@]1(O)CC2CN(CCc3c([nH]c4ccccc34)[C@@](C(=O)OC)(c3cc4c(cc3OC)N(C)[C@H]3[C@@](O)(C(=O)NNC(=O)OCCSSC[C@H](NC(=O)[C@H](CC(=O)O)NC(=O)[C@H](CC(=O)O)NC(=O)[C@H](CCCNC(=N)N)NC(=O)[C@H](CC(=O)O)NC(=O)CC[C@H](NC(=O)c5ccc(NCc6cnc7nc(N)[nH]c(=O)c7n6)cc5)C(=O)O)C(=O)O)[C@H](O)[C@]5(CC)C=CCN6CC[C@]43[C@@H]65)C2)C1 (stereo partly drawn) [EC145, EC119-L-DAVLBH]
Fold Weaker Affinity form FA [2]: 2.1
Relative Binding Affinity (37° C.) [2]: 0.47
fold change of RA with serum versus absence of serum [2]: 2.4
RA (relative affinity) [5]: 0.12
complete responses [4]: 2/5

SMILES: CC[C@]1(O)CC2CN(CCc3c([nH]c4ccccc34)[C@@](C(=O)OC)(c3cc4c(cc3OC)N(C)[C@H]3[C@@](O)(C(=O)NNC(=O)OCCSSC[C@H](NC(=O)c5ccc(NCc6cnc7nc(N)[nH]c(=O)c7n6)cc5)C(=O)O)[C@H](O)[C@]5(CC)C=CCN6CC[C@]43[C@@H]65)C2)C1 (stereo partly drawn) [EC216, Pte-Cys-L-DAVLBH]
remaining in solution [6]: remain in solution
fold decrease in RA versus EC145 ([2]; KB cells, 10% serum, 37° C., shortened spacer): 10
Fold Weaker Affinity form FA ([2]; Table 2, 37° C., 10% serum): 22
Relative Binding Affinity (37° C.) [2, 9]: 0.046

SMILES: Nc1nc2ncc(CNc3ccc(C(=O)N[C@@H](CCC(=O)O)C(=O)O)cc3)nc2c(=O)[nH]1 [Folic Acid]
variation of calculated RA values among serum conditions ([2]; 0 to 100% sera): 13%

SMILES: CN(Cc1cnc2nc(N)[nH]c(=N)c2n1)c1ccc(C(=O)N[C@@H](CCC(=O)O)C(=O)O)cc1 [Methotrexate]
Relative Binding Affinity (0° C.), value in parentheses [1]: 0.008
fold weaker affinity / fold lower RA ([2]; KB cells, 10% serum, 37° C.): 50
Fold Weaker Affinity from FA ([2]; Table 1, 37° C., 10% serum): 50
Relative Binding Affinity (0° C.) ([2]; Table 1, KB cells, FA = 1): 0.000
Relative Binding Affinity (37° C.) [2, 7]: 0.018

SMILES: Nc1nc2[nH]cc(CCc3ccc(C(=O)N[C@@H](CCC(=O)O)C(=O)O)cc3)c2c(=O)[nH]1 [Pemetrexed, N-(4-(2-(2-amino-4,7-dihydro-4-oxo-3H-pyrrolo[2,3-D]pyrimidin-5-yl)ethyl)benzoyl]-L-glutamic acid]
Relative Binding Affinity (0° C.), value in parentheses [1]: 1.5
Fold Weaker Affinity from FA ([2]; Table 1, 37° C., 10% serum): 500
Relative Binding Affinity (0° C.) ([2]; Table 1, KB cells, FA = 1): 0.26
Relative Binding Affinity (37° C.) [2, 7]: 0.002

SMILES: Nc1nc2ncc(C(=O)O)nc2c(=O)[nH]1 [Pterin-6-carboxylate]
RA / competitive binding in words ([2]; KB cells, 10% serum, 37° C.): failed to block
Relative Binding Affinity (37° C.) [2, 7]: 0.000

SMILES: Nc1nc2ncc(CNc3ccc(C(=O)O)cc3)nc2c(=O)[nH]1 [Pteroic Acid]
RA (relative affinity) ([2]; KB cells on ice / cold incubation, absence of serum): 0.42
fold weaker affinity than FA ([2]; KB cells on ice, no serum): 2.4
fold weaker affinity / fold lower RA ([2]; KB cells, 10% serum, 37° C., listed as Pte): 91 and 90
RA (relative affinity) ([2]; KB cells, 37° C., no serum): 0.01
fold weaker affinity than FA ([2]; KB cells, 37° C., no serum): 100
Fold Weaker Affinity from FA ([2]; Table 1, 37° C., 10% serum): 91
Relative Binding Affinity (0° C.) ([2]; Table 1, KB cells, FA = 1): 0.42
Relative Binding Affinity (37° C.) [2, 7]: 0.011

SMILES: Cc1cc2nc3c(=O)[nH]c(=O)nc-3n(C[C@H](O)[C@H](O)[C@H](O)CO)c2cc1C [riboflavin]
competition with binding of 3H-FA ([2]; 300-fold molar excess, KB cells): not able to compete
RA / competitive binding in words ([2]; KB cells, 10% serum, 37° C.): very low

— patent publication US10363250B2, “Folate receptor binding conjugates of antifolates” (Purdue Research Foundation, priority 2008, dated 2019)
